Assay type in all cases: cell-based
One assay has as its system HMGB1. Nature of the assay: Western blot, HMGB1 expression inhibition, LPS-stimulated cells. As to the method: (§1) Raw 264.7 macrophage cell (KCBL, 40071) from Korea Cell Bank was maintained in Dulbecco's modified Eagle's medium (DMEM; PAA, Austria) containing 10% fetal bovine serum (FBS; Gibco Laboratories), 100 unit/mL of streptomycin, and penicillin (Gibco Laboratories) at 37° C. with 5% CO2. Raw264.7 cells were seeded into a 96-well plate at a density of 1×10^6 cells/mL and incubated overnight.
(§2) On the following day, the medium was replaced with fresh medium and 5 μg/mL of peptide (obtained as described in Experiment example 1) was added to the cells. After 30 min incubation of cells with the peptide 50 μL of LPS (to a final concentration of 1 μg/mL) was added, and cells were incubated for additional 24 hr. The experimental sample with the induction of inflammatory response was treated with 1 μg/mL mL lipopolysaccharide (LPS; Sigma, USA) and control sample was treated with phosphate buffered saline (PBS; pH 7.2). The supernatant samples from each condition was collected in eppendorf tubes and subjected to further analysis.
(§3) Protein expression level was determined by Western blot analysis. […] The membrane was incubated with ECL (enhanced chemiluminesence) solution (Amersham Life Science Corp., Arlington Heights, Ill., USA), exposed to X-ray, and the level of protein expression was analyzed according to the exposure level shown on the X-ray film.
(In western blotting, separated proteins are transferred to a membrane and probed.)

A further assay concerns IL-6. Nature of the assay: IL-6 secretion measurement (ELISA) in LPS-challenged RAW 264.7 cells. The note with it: RAW 264.7 cell, LPS 1 μg/mL, PEP 1 5 μg/ml, 24 hr. The method, then:
as §1, §2
To investigate the effect of PEP1 on inhibiting pro-inflammatory cytokine production RAW 264.7 cell were pre-treated with PEP 1 at a concentration of 5 μg/mL challenged with LPS at a concentration of 1 μg/mL, and cells were further incubated for 24 hr. The supernatant samples containing cell culture medium was collected and analyzed for the cytokine levels using ELISA kits (eBioscience, San Diego).
96 wells plates were coated with 100 μl of capture antibodies (diluted in coating buffer to the concentration recommended by manufacturer's protocol) overnight at 4° C. Then, after washing the plates 5 times, 200 μL of assay diluents was added to each well and incubated for 1 hr at room temperature for blocking. […]
Following incubation with the secondary antibody, the plate was washed five times and incubated with 100 μl of avidin-HRP (BD Bioscience) for 30 min at room temperature. […] The reaction was stopped by adding 50 μl of 2N H2SO4 in each well The optical density at 450 nm was measured using a microplate reader. […]
For orientation: ELISA stands for enzyme-linked immunosorbent assay.

For a further assay, the system named is nitric oxide (NO). Nature of the assay: NO level analysis (Griess reagent) in LPS-stimulated Raw 264.7 cells. The following applies: Raw 264.7 cell, LPS 1 μg/mL, PEP 1 0.5 μg/mL. The method, then: as §1
[…] After 30 min incubation of cells with the peptide 50 μL of LPS (to a final concentration of 1 μg/mL) was added, and cells were incubated for additional 24 hr. The experimental sample with the induction of inflammatory response was treated with 1 μg/mL mL lipopolysaccharide (LPS; Sigma, USA) and control sample was treated with phosphate buffered saline (PBS; pH 7.2). The supernatant samples from each condition was collected in eppendorf tubes and subjected to further analysis.
The level of nitric oxide (NO) was measured in Raw 264.7 cell (1×10^6 cell/ml) using Griess reagent system (Promega, USA). Culture medium of 50 μl was added to a 96-well plate and Griess reagent I […] are added in the same amount. After 10 min incubation of cells with the reagents, the optical density at 540 nm was measured within 30 min using a microplate reader (Molecular Devices, USA). The concentration of NO was calculated by using a standard curve (0˜100 μM) of sodium nitrite.
On the technique in general: Griess reagent forms a coloured azo dye with nitrite.

For a further assay, the system named is TNF-α. Nature of the assay: Western blot, TNF-α expression inhibition, LPS-stimulated cells. The method, then: as §1, §2, §3
The subject of another assay is COX-2. The assay is described as follows: Western blot, COX-2 expression inhibition, LPS-stimulated cells. The method, then: as §1, §2, §3
The mark [1] stands for this setting: cells treated with both LPS and Pep1.

Consider EARPALLTSRLRFIPK [PEP 1], for which the “Cytokine Expression Level (band intensity) % of control HMGB1” value in the assay on HMGB1 (LPS 1 μg/ml, PEP 1 5 μg/ml) is on record as 30%. In addition, the “decrease of pro-inflammatory cytokine level (HMGB1)” value with HMGB1 (setting [1]) is recorded as “more than 70%”. In addition, in the assay on IL-6, the “cytokine IL-6 production % of control” value is given as 28% and the “cytokine IL-6 production inhibition %” value turned out to be 72%. Moreover, the “cytokine IL-6 production inhibition %” value with IL-6 (listed as PEP-1) is “more than 70%”. In addition, in the assay with nitric oxide (NO), the “Decreased NO Expression Level (%)” value is listed as 65% and the “NO Expression Level of control (%)” value was determined as 35%. In the assay on nitric oxide (NO) (listed as Pep1), the “NO Expression Level of control (%)” value came out at 65%. In the assay with TNF-α (LPS 1 μg/ml, PEP 1 5 μg/ml), the “Cytokine Expression Level (band intensity) % of control TNF-α” value amounted to 25%. For the same sequence, the “decrease of pro-inflammatory cytokine level (TNF-α)” value in the assay with TNF-α (setting [1]) is “more than 70%”. In addition, the “Cytokine Expression Level (band intensity) % of control COX-2” value in the assay on COX-2 (LPS 1 μg/ml, PEP 1 5 μg/ml) was found to be 22%. For the same sequence, the “decrease of pro-inflammatory cytokine level (COX)” value in the assay with COX-2 (setting [1]) is recorded as “more than 70%”.

Values taken from patent publication US11098294B2, “Anti-inflammatory peptides and composition comprising same” (GemVax & KAEL Co., Ltd., priority 2012, dated 2021).
